Measurements from US8557776B2, “Compounds and methods for 18F labeled agents” (Bayer Pharma AG, priority 2006, dated 2013).
*1 amine or outer side, *2 acyl side, *3 side chain or, on linkers, in order; H or OH if unused. Where a SMILES comes first, the peptide text is derived from it. [ ]: non-standard residue; d: D form. The star is where a group is joined. γ4hIle = CC[C@H](C)[C@@H](CCC(=O)[*:2])N[*:1]; Benzoyl(3-CN,4-F) = N#Cc1cc(C(=O)*)ccc1F; Ava = NCCCCC(=O)O

Columns and labels:
[1] = tested on: human prostate cancer PC-3; assay: Biodistribution of F-18-Bombesin Analog in nude mice bearing human prostate cancer PC-3; format: in vivo
Procedure: Nude mice bearing human prostate cancer PC-3 were injected with 100 μl radioactive peptide dissolved in PBS containing 135 kBq per animal. For blocking 100 μg unlabeled gastrin-releasing peptide was co-injected. One hour post injection the animals were sacrificed and organs dissected for counting in a gamma-counter. Values are expressed as percent of the injected dose per gram organ weight.

| Compound | Tumor/Tissue-Ratios T/Blood ([1]; 1 h Blocking: 100 μg unlabeled gastrin-releasing peptide co-injected) | Tumor/Tissue-Ratios T/Blood ([1]; 1 h post injection) | tumor-tissue ratio relative to that of 18F-choline (FCH) and 18F-FB-Lys-BN ([1]; FIG. 8, protocol as above) [time higher] | accumulation in tumor (in words) ([1]; PC-3 tumor, 1 h post injection) | specificity of targeting (in words) ([1]; blocking values low in tumor on co-injection of gastrin-releasing peptide) | Panc. % (Table 1) |
| --- | --- | --- | --- | --- | --- | --- |
| CC[C@H](C)[C@@H](CCC(=O)N[C@@H](CC(C)C)C(N)=O)NC(=O)[C@H](Cc1c[nH]cn1)NC(=O)CNC(=O)[C@@H](NC(=O)[C@H](C)NC(=O)[C@H](Cc1c[nH]c2ccccc12)NC(=O)[C@H](CCC(N)=O)NC(=O)CCCCNC(=O)c1ccc(F)c(C#N)c1)C(C)C [F-18-Bombesin Analog] ({Benzoyl(3-CN,4-F)-Ava}-QWAVGH[γ4hIle]L-NH2; N-terminus assumed) | 1.57 ± 0.22 | 21.03 ± 11.92 | 2.5 | accumulates in tumor | specific |  |
| 3-CF3,4-F-Benzoyl-Arg-Ava-Gln-Trp-Ala-Val-NMeGly-His-Sta-Leu-NH2 (SEQ ID NO: 421) (RXQWAVGHXL; 3-CF3,4-F-benzoyl N-cap, Ava, NMeGly, Sta, C-amide) |  |  |  |  |  | 1,42% |
